Measured values: the OligoGym collection
After the bases stand the sugars from the 5' end (letter, count) and the backbone: PS all phosphorothioate, else s phosphorothioate and o phosphodiester by linkage. Methylation of C is not given here. e = 2'-O-(2-methoxyethyl) (MOE); k = constrained ethyl (cEt); d = 2'-deoxy (DNA); m = 2'-O-methyl

Molecular target: HSD17B13
Conditions: ASO, HepaRG

| Sequence | target mRNA inhibition (1 µM) [%] | other results |
| --- | --- | --- |
| AGTCCATGCAAAAGCA (sugars k3 d1 m1 d8 k3, PS) | 73 | target mRNA inhibition (0.02 µM): 0%; target mRNA inhibition (0.078 µM): 21%; target mRNA inhibition (0.313 µM): 20%; target mRNA inhibition (1.25 µM): 65%; target mRNA inhibition (5 µM): 75% |
| GAGTTAGGGAGCCAGC (sugars k3 d10 k3, PS) | 39 |  |
| CTGGATATACTGTCCC (sugars k3 d10 k3, PS) | 20 |  |
| CATCUCTGGGACCAAG (sugars k3 d1 m1 d8 k3, PS) | 42 |  |
| TCGGUCACCTTTCATA (sugars k3 d1 m1 d8 k3, PS) | 21 |  |
| GAGGTATGTCATACTT (sugars k3 d10 k3, PS) | 29 |  |
| CATTGATTCGAAACTA (sugars k3 d10 k3, PS) | 40 |  |
| TGGGACCAAGGATATA (sugars k3 d10 k3, PS) | 20 |  |
| GTAAGGAATCCCTTCG (sugars k3 d10 k3, PS) | 22 |  |
| CTATTAGTTGGCCTGC (sugars k3 d10 k3, PS) | 32 |  |
| CAAAAGACTTTGAGAC (sugars kkdddddddddkekek, PS) | 32 |  |
| AGAGTTGCACCGTTTT (sugars kkdddddddddkekek, PS) | 80 | target mRNA inhibition (0.02 µM): 6%; target mRNA inhibition (0.078 µM): 18%; target mRNA inhibition (0.313 µM): 38%; target mRNA inhibition (1.25 µM): 63%; target mRNA inhibition (5 µM): 81% |
| CGAATTTCTTCAAAGA (sugars k3 d10 k3, PS) | 55 |  |
| TACCTCTAAGTTAGCC (sugars kkdddddddddkekek, PS) | 20 |  |
| GGTTCAGTCCTTGTGT (sugars k3 d10 k3, PS) | 57 |  |
| TTAGTTGGTAGCTTGC (sugars k3 d10 k3, PS) | 72 |  |
| GGACAAATGCCTGAGA (sugars k3 d10 k3, PS) | 52 |  |
| CATATGGTGTACACTG (sugars k3 d10 k3, PS) | 15 |  |
| GCTGTAATTAGGAAGA (sugars k3 d10 k3, PS) | 24 |  |
| AAGATAAGTAGATGGT (sugars k3 d10 k3, PS) | 79 | target mRNA inhibition (0.02 µM): 7%; target mRNA inhibition (0.078 µM): 26%; target mRNA inhibition (0.313 µM): 58%; target mRNA inhibition (1.25 µM): 77%; target mRNA inhibition (5 µM): 89% |
| AGTTTTTAAGAGGCAT (sugars k3 d10 k3, PS) | 75 |  |
| CTTCTATTAGTTGGCC (sugars k3 d10 k3, PS) | 11 |  |
| TTAGCAAGCTAAGAGA (sugars k3 d10 k3, PS) | 42 |  |
| GCTGUAAGAGTCAGTA (sugars k3 d1 m1 d8 k3, PS) | 28 |  |
| TGATACACCAATGCAG (sugars k3 d10 k3, PS) | 44 |  |
| GCAAAGTTAATAGGAC (sugars k3 d10 k3, PS) | 52 |  |

| Sequence | target mRNA inhibition (1 µM) [%] | other results |
| --- | --- | --- |
| TGCAAGATTTACTTCC (sugars k3 d10 k3, PS) | 45 |  |
| TATATACTAGGATTAG (sugars k3 d10 k3, PS) | 10 |  |
| AATACCCTTGGTGGAG (sugars k3 d10 k3, PS) | 16 |  |
| AATTAACATTCGGCTA (sugars k3 d10 k3, PS) | 38 |  |
| TGCATAAGAGATGAGT (sugars k3 d10 k3, PS) | 19 |  |
| CTTCACTATATTGCAT (sugars k3 d10 k3, PS) | 50 |  |
| GGGACCAAGGATATAT (sugars k3 d10 k3, PS) | 17 |  |
| AGCTAGATACTCAATT (sugars k3 d10 k3, PS) | 2 |  |
| CTTTAGCTTAAACTCC (sugars k3 d10 k3, PS) | 69 |  |
| AATATAGAGGGTCCAC (sugars k3 d10 k3, PS) | 7 |  |
| TGTTGATATTCTGTGG (sugars k3 d1 m1 d8 k3, PS) | 48 |  |
| TTACAGCCTTAGAGTG (sugars k3 d10 k3, PS) | 21 |  |
| TTGAATAGCAAGCCAA (sugars k3 d10 k3, PS) | 31 |  |
| AAGTAAGGTAAAGTCT (sugars k3 d10 k3, PS) | 20 |  |
| ACACTAATATTGAGGC (sugars kkdddddddddkekek, PS) | 55 |  |
| TTGGGTCCATTGTTTC (sugars k3 d10 k3, PS) | 44 |  |
| CGAAACTATTCATATC (sugars k3 d10 k3, PS) | 66 |  |
| CCAAGTAGGAGTAGAT (sugars k3 d10 k3, PS) | 19 |  |
| AGCCAGTACAGTTCCT (sugars k3 d10 k3, PS) | 58 |  |
| AACAATATGGGATGAG (sugars k3 d10 k3, PS) | 39 |  |
| TTAAGTACTGTGAGAC (sugars k3 d10 k3, PS) | 35 |  |
| GAGTTGCACCGTTTTG (sugars kkdddddddddkekek, PS) | 61 |  |
| CCTAAGATAAAATTGC (sugars k3 d10 k3, PS) | 18 |  |
| TAGTGGACTTCATTAG (sugars k3 d10 k3, PS) | 52 |  |
| CTAAAGGTTTCTGTTG (sugars k3 d10 k3, PS) | 34 |  |
